Reference: ChEMBL document CHEMBL4680160, “A perspective review on fatty acid amide hydrolase (FAAH) inhibitors as potential therapeutic agents” (Eur J Med Chem, 2020)
One block for each compound: values may come before it.

Key:
[1] = biological target: T1, Fatty-acid amide hydrolase 1 (Rattus norvegicus, UniProt P97612); experiment: Inhibition of FAAH in rat brain microsomes using N-(2-hydroxyethyl)-4-pyren-1-ylbutanamide as substrate incubated for 45 mins by reverse-phase HPLC-based fluorescence assay
T1 sequence (P97612 whole entry): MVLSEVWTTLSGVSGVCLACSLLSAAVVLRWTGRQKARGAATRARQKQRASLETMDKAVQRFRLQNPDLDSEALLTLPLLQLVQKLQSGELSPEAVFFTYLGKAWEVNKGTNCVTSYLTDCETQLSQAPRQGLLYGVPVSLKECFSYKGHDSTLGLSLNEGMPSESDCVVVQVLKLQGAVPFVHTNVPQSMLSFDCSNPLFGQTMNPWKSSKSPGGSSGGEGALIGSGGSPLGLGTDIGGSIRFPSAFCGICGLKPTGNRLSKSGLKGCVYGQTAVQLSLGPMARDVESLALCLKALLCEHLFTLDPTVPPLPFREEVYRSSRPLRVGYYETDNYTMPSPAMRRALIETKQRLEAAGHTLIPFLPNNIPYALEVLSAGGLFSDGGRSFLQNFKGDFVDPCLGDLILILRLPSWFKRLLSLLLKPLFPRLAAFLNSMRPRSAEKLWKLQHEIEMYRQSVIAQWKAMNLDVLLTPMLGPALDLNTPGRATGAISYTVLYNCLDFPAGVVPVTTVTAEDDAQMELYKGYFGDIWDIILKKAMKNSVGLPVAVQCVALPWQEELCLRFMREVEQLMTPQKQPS

[2] = biological target: T1, Fatty-acid amide hydrolase 1; experiment: Inhibition of FAAH in rat brain homogenate using [3H]AEA as substrate; assay type: tissue-based
[3] = biological target: T1, Fatty-acid amide hydrolase 1; experiment: Inhibition of FAAH in rat brain homogenate using 2-arachidonoyl-[3H]-glycerol as substrate by scintillation counting method; assay type: tissue-based
[4] = biological target: T1, Fatty-acid amide hydrolase 1; experiment: Inhibition of FAAH in rat brain homogenate using [3H]AEA as substrate incubated for 10 mins by liquid scintillation spectroscopy; assay type: tissue-based
[5] = In vivo inhibition of FAAH in NMRI mouse assessed as remaining enzymatic activity in liver at 30 mg/kg, po measured after 1 hr by AEA-substrate based scintillation counting method relative to control; assay type: functional
[6] = In vivo inhibition of FAAH in NMRI mouse assessed as remaining enzymatic activity in brain at 30 mg/kg, po measured after 1 hr by AEA-substrate based scintillation counting method relative to control; assay type: functional
[7] = biological target: T1, Fatty-acid amide hydrolase 1; experiment: Inhibition of rat FAAH using [3H]-AEA as substrate by liquid chromatography-mass spectrometry
[8] = species: Rattus norvegicus; experiment: Selectivity ratio of IC50 for rat NAAA using d4-PEA as substrate to IC50 for rat FAAH using [3H]-AEA as substrate
[9] = biological target: T1, Fatty-acid amide hydrolase 1; experiment: Inhibition of FAAH in Sprague-Dawley rat brain homogenate using arachidonoyl-ethanolamide and anandamide [ethanolamine-1-3H] as substrate pre-incubated for 10 mins followed by substrate addition and measured after 30 mins by liquid scintillation counting method; assay type: tissue-based

- IC50 [1]: 3900 nM
SMILES: CC(=O)Nc1ccc2c(cnn2CC(=O)COc2ccc(Oc3ccccc3)cc2)c1

- IC50 [2]: 620 nM
SMILES: O=C(COc1ccc(-c2ccccc2)cc1)Nc1ccc(-c2nc3ncccc3[nH]2)cc1

- IC50 [1]: 1600 nM
SMILES: CCNC(=O)Nc1ccc2c(cnn2CC(=O)COc2ccc(Oc3ccccc3)cc2)c1

- IC50 [7]: 0.8 nM
- Ratio IC50 [8]: > 10000
SMILES: CC(=O)Oc1cn(C(=O)NCCCCc2ccc(-c3ccccc3)cc2)c(=O)[nH]c1=O

- IC50 [2]: 18000 nM
SMILES: O=C(COc1ccccc1)Nc1cccc(-c2nc3ncccc3o2)c1

- IC50 [2]: 5500 nM
SMILES: CCC/C=C/COCC(=O)Nc1ccccc1-c1nc2ncccc2[nH]1

- IC50 [2]: 2600 nM
SMILES: O=C(COc1ccc(C2CCCCC2)cc1)Nc1cccc(-c2nc3ncccc3o2)c1

- IC50 [2]: 73000 nM
SMILES: CCC/C=C/COCC(=O)Nc1cccc(-c2nc3cccnc3[nH]2)c1

- IC50 [2]: 1500 nM
SMILES: O=C(COc1ccc(C2CCCCC2)cc1)Nc1ccc(-c2nc3ncccc3[nH]2)cc1

- IC50 [1]: 5400 nM
SMILES: O=C(COc1ccc(Oc2ccccc2)cc1)Cn1ncc2cc(NC(=O)CO)ccc21

- IC50 [2]: 1100 nM
SMILES: O=C(COc1ccc(-c2ccccc2)cc1)Nc1ccccc1-c1nc2ncccc2[nH]1

- IC50 [2]: 47000 nM
SMILES: O=C(COc1ccc(C2CCCCC2)cc1)Nc1cccc(-c2nc3ncccc3[nH]2)c1

- IC50 [2]: 630 nM
SMILES: O=C(COc1ccc(-c2ccccc2)cc1)Nc1cccc(-c2nc3ncccc3o2)c1

- IC50 [2]: 350 nM
SMILES: O=C(COc1ccc(-c2ccccc2)cc1)Nc1ccc(-c2nc3ncccc3o2)cc1

- IC50 [2]: 650 nM
SMILES: O=C(COc1ccc(C2CCCCC2)cc1)Nc1ccccc1-c1nc2ncccc2[nH]1

- IC50 [2]: 13000 nM
SMILES: O=C(COc1ccc(-c2ccccc2)cc1)Nc1cccc(-c2nc3cccnc3[nH]2)c1

- IC50 [2]: 64000 nM
SMILES: CCCC/C=C/COCC(=O)Nc1ccc(-c2nc3ncccc3[nH]2)cc1

- IC50 [2]: 2100 nM
SMILES: CC(C)c1ccc(OCC(=O)Nc2cccc(-c3nc4ncccc4o3)c2)cc1

- IC50 [1]: 8 nM
SMILES: O=C(COc1ccc(Oc2ccccc2)cc1)Cn1ncnn1

- IC50 [7]: 0.3 nM
- Ratio IC50 [8]: > 10000
SMILES: CC(=O)Oc1cn(C(=O)NCCCc2ccc(-c3ccccc3)cc2)c(=O)[nH]c1=O

- IC50 [2]: 17000 nM
SMILES: CCC/C=C/COCC(=O)Nc1cccc(-c2nc3ncccc3o2)c1

- IC50 [7]: 3 nM
- Ratio IC50 [8]: 3130
SMILES: CC(=O)Oc1cn(C(=O)NCCCCCCCc2ccccc2)c(=O)[nH]c1=O

- IC50 [1]: 6300 nM
SMILES: COCC(=O)Nc1ccc2c(cnn2CC(=O)COc2ccc(Oc3ccccc3)cc2)c1

- IC50 [1]: 4000 nM
SMILES: COC(=O)Nc1ccc2c(cnn2CC(=O)COc2ccc(Oc3ccccc3)cc2)c1

The next lines start with the compound.

SMILES: O=C(COc1ccc(Oc2ccccc2)cc1)Cn1ncc2cc(C(=O)NS(=O)(=O)c3ccccc3)ccc21
- IC50 [1]: 4700 nM

SMILES: Cc1ccc2c(nc(CN3CCN(C(=O)n4cncn4)CC3)c3cccn32)c1C
- IC50 [3]: 32.4 nM

SMILES: CC(C)Cc1ccc(C(C)C(=O)N2CCN(c3cccc(Cl)c3)CC2)cc1 (stereo not drawn)
- IC50 [4]: 1700 nM

SMILES: Cc1ccc2c(nc(CNC3CCN(C(=O)n4nnc5ccccc54)CC3)c3cccn32)c1C
- IC50 [3]: 25.1 nM

SMILES: O=c1oc(Oc2ccc(F)cc2F)nn1-c1cccc(O)c1
- Activity [5]: 12%
- Activity [6]: 94%

SMILES: O=C(COc1ccc(Oc2ccccc2)cc1)Cn1ncc2ccccc21
- IC50 [1]: 2600 nM

SMILES: O=C(N1CCN(Cc2nc3cc(Cl)ccc3n3cccc23)CC1)n1cncn1
- IC50 [3]: 25.1 nM

SMILES: O=C(COc1ccc(Oc2ccccc2)cc1)Cn1ncc2cc(NC(=O)Nc3ccccc3)ccc21
- IC50 [1]: 6000 nM

SMILES: Cl.O=c1oc(Oc2ccc(F)cc2F)nn1-c1ccc(OCCN2CCCC2)cc1
- Activity [5]: 9%
- Activity [6]: 10%

SMILES: CC(C)Cc1ccc(C(C)C(=O)NCc2ccc(F)cc2)cc1 (stereo not drawn)
- IC50 [4]: 27000 nM

SMILES: CC(C)Cc1ccc(C(C)C(=O)NCc2ccc(C(C)(C)C)cc2)cc1 (stereo not drawn)
- IC50 [4]: 25000 nM

SMILES: COc1ccc(CNC(=O)C(C)c2ccc(CC(C)C)cc2)cc1 (stereo not drawn)
- IC50 [4]: 43000 nM

SMILES: Cl.Cl.O=c1oc(Oc2ccc(F)cc2F)nn1-c1ccc(OCCN2CCNCC2)cc1
- Activity [5]: 5%
- Activity [6]: 74%

SMILES: CCCCCCNC(=O)n1cc(C#N)c(=O)[nH]c1=O
- IC50 [7]: 25 nM

SMILES: CC(C)Cc1ccc(C(C)C(=O)NCc2ccc(Cl)c(Cl)c2)cc1 (stereo not drawn)
- IC50 [4]: 36000 nM

SMILES: O=C(COc1ccc(Oc2ccccc2)cc1)Cn1ncc2cc([N+](=O)[O-])ccc21
- IC50 [1]: 550 nM

SMILES: O=C(COc1ccc(Oc2ccccc2)cc1)Cn1ncc2cc(C(=O)O)ccc21
- IC50 [1]: 55 nM

SMILES: Cc1ccc2c(nc(CN3CCN(C(=O)n4nnc5ccccc54)CC3)c3cccn32)c1C
- IC50 [3]: 27.3 nM

SMILES: CS(=O)(=O)NC(=O)c1ccc2c(cnn2CC(=O)COc2ccc(Oc3ccccc3)cc2)c1
- IC50 [1]: 770 nM

SMILES: CCCCCCNC(=O)n1cc(OC(C)=O)c(=O)[nH]c1=O
- IC50 [7]: 25 nM

SMILES: CC(C)Cc1ccc(C(C)C(=O)N2CCN(c3ccc(Cl)cc3)CC2)cc1 (stereo not drawn)
- IC50 [4]: 1700 nM

SMILES: O=c1oc(Oc2ccc(F)cc2F)nn1-c1ccc(O)cc1
- Activity [5]: 12%
- Activity [6]: 86%

SMILES: O=C(COc1ccc(Oc2ccccc2)cc1)Cn1ncc2cc(C(=O)NS(=O)(=O)C(F)(F)F)ccc21
- IC50 [1]: 510 nM

SMILES: CC(C)Cc1ccc(C(C)C(=O)N2CCN(c3ccc(Cl)c(Cl)c3)CC2)cc1 (stereo not drawn)
- IC50 [4]: 16000 nM

SMILES: O=C(N1CCN(Cc2nc3ccccc3n3cccc23)CC1)n1nnc2ccccc21
- IC50 [3]: 23.6 nM

SMILES: O=C(N1CCN(Cc2nc3ccccc3n3cccc23)CC1)n1cncn1
- IC50 [3]: 37 nM

SMILES: O=C(Cn1nnc2ccccc21)c1nc2cc(Oc3ccccc3)ccc2o1
- IC50 [1]: 10000 nM

SMILES: N#CNC(COc1ccc(Oc2ccccc2)cc1)Cn1ncnn1 (stereo not drawn)
- IC50 [1]: 5300 nM

SMILES: O=C(N1CCC(NCc2nc3cc(F)ccc3n3cccc23)CC1)n1nnc2ccccc21
- IC50 [3]: 9.6 nM

SMILES: O=C(COc1ccc(Oc2ccccc2)cc1)Cn1ncc2cc(NC(=O)NC3CCCCC3)ccc21
- IC50 [1]: 840 nM

SMILES: O=C(N1CCN(Cc2nc3cc(F)ccc3n3cccc23)CC1)n1cncn1
- IC50 [3]: 20.7 nM

SMILES: O=C(N1CCN(Cc2nc3cc(Cl)ccc3n3cccc23)CC1)n1nnc2ccccc21
- IC50 [3]: 35.8 nM

SMILES: Cl.Cl.O=c1oc(Oc2ccc(F)cc2F)nn1-c1ccc(OCCCN2CCNCC2)cc1
- Activity [5]: 8%
- Activity [6]: 85%

SMILES: CC(C)Cc1ccc(C(C)C(=O)NCc2ccccc2)cc1 (stereo not drawn)
- IC50 [4]: 21000 nM

SMILES: CC(C)Cc1ccc(C(C)C(=O)NCc2cccc(C(F)(F)F)c2)cc1 (stereo not drawn)
- IC50 [4]: 28000 nM

SMILES: Cc1cccc(N2CCN(C(=O)C(C)c3ccc(CC(C)C)cc3)CC2)c1 (stereo not drawn)
- IC50 [4]: 16000 nM

SMILES: CCCCCCNC(=O)n1ccc(=O)[nH]c1=O
- IC50 [7]: 492 nM
- Ratio IC50 [8]: 2

SMILES: COc1ccc(N2CCN(C(=O)C(C)c3ccc(CC(C)C)cc3)CC2)cc1 (stereo not drawn)
- IC50 [4]: 4500 nM

SMILES: NC(=O)c1cccc(-c2cccc(OC(=O)NCCCN3CCN(c4cccc(Cl)c4Cl)CC3)c2)c1
- IC50 [9]: 0.1 nM

SMILES: Cl.O=c1oc(Oc2ccc(F)cc2F)nn1-c1ccc(OCCN2CCCCC2)cc1
- Activity [5]: 10%
- Activity [6]: 20%

SMILES: CC(C)Cc1ccc(C(C)C(=O)NCc2ccc(C(F)(F)F)cc2)cc1 (stereo not drawn)
- IC50 [4]: 51000 nM

SMILES: CC(C)Cc1ccc(C(C)C(=O)NCc2ccc(Cl)cc2)cc1 (stereo not drawn)
- IC50 [4]: 27000 nM

SMILES: COc1ccccc1CNC(=O)C(C)c1ccc(CC(C)C)cc1 (stereo not drawn)
- IC50 [4]: 18000 nM

SMILES: CC(C)Cc1ccc(C(C)C(=O)N2CCN(c3ccccc3)CC2)cc1 (stereo not drawn)
- IC50 [4]: 4700 nM

SMILES: O=C(COc1ccc(Oc2ccccc2)cc1)Cn1ncc2cc(NC(=O)Oc3ccccc3)ccc21
- IC50 [1]: 2100 nM

SMILES: COc1ccc(CNC(=O)C(C)c2ccc(CC(C)C)cc2)cc1O (stereo not drawn)
- IC50 [4]: 18000 nM

SMILES: O=C(N1CCN(Cc2nc3cc(F)ccc3n3cccc23)CC1)n1nnc2ccccc21
- IC50 [3]: 23.2 nM

SMILES: Cc1cccc(N2CCN(C(=O)C(C)c3ccc(CC(C)C)cc3)CC2)c1C (stereo not drawn)
- IC50 [4]: 1700 nM

SMILES: CCCCCCNC(=O)n1cc(F)c(=O)[nH]c1=O [CARMOFUR]
- IC50 [7]: 25 nM
